Measured values from ChEMBL document CHEMBL3813672, “Discovery of anti-cancer activity for benzo[1,2,4]triazin-7-ones: Very strong correlation to pleurotin and thioredoxin reductase inhibition” (Bioorg Med Chem, 2016).

Legend:
[1] = Mixed-type inhibition of rat liver thioredoxin reductase using DTNB as substrate measured for 50 mins at 5 mins intervals in presence of NADPH by Lineweaver-Burk plot analysis
A498 = experiment: Growth inhibition of human A498 cells incubated for 48 hrs by sulforhodamine B assay; format: functional; settings: A498, 48 h
[2] = Growth inhibition of human LOXIMVI cells incubated for 48 hrs by sulforhodamine B assay; format: functional; settings: LOX IMVI
[3] = Growth inhibition of human RXF393 cells incubated for 48 hrs by sulforhodamine B assay; format: functional; settings: RXF 393, 48 h
[4] = Growth inhibition of human OVCAR5 cells incubated for 48 hrs by sulforhodamine B assay; format: functional; settings: OVCAR-5, 48 h
NCI/ADR-RES = experiment: Growth inhibition of human NCI/ADR-RES cells incubated for 48 hrs by sulforhodamine B assay; format: functional
HT-29 = experiment: Growth inhibition of human HT-29 cells incubated for 48 hrs by sulforhodamine B assay; format: functional; settings: HT-29, 48 h
ACHN = experiment: Growth inhibition of human ACHN cells incubated for 48 hrs by sulforhodamine B assay; format: functional
SK-MEL-28 = experiment: Growth inhibition of human SK-MEL-28 cells incubated for 48 hrs by sulforhodamine B assay; format: functional; settings: SK-MEL-28, 48 h
MDA-MB-468 = experiment: Growth inhibition of human MDA-MB-468 cells incubated for 48 hrs by sulforhodamine B assay; format: functional; settings: MDA-MB-468, 48 h
[5] = Growth inhibition of human UACC62 cells incubated for 48 hrs by sulforhodamine B assay; format: functional; settings: UACC-62, 48 h
[6] = Growth inhibition of human UO31 cells incubated for 48 hrs by sulforhodamine B assay; format: functional; settings: UO-31, 48 h
EKVX = experiment: Growth inhibition of human EKVX cells incubated for 48 hrs by sulforhodamine B assay; format: functional
K562 = experiment: Growth inhibition of human K562 cells incubated for 48 hrs by sulforhodamine B assay; format: functional; settings: K562, 48 h
NCI-H460 = experiment: Growth inhibition of human NCI-H460 cells incubated for 48 hrs by sulforhodamine B assay; format: functional; settings: NCI-H460, 48 h
NCI-H226 = experiment: Growth inhibition of human NCI-H226 cells incubated for 48 hrs by sulforhodamine B assay; format: functional; settings: NCI-H226, 48 h
SK-MEL-5 = experiment: Growth inhibition of human SK-MEL-5 cells incubated for 48 hrs by sulforhodamine B assay; format: functional; settings: SK-MEL-5, 48 h
A549 = experiment: Growth inhibition of human A549/ATCC cells incubated for 48 hrs by sulforhodamine B assay; format: functional; settings: A549, 48 h
[7] = Selectivity ratio of IC50 for human GM00637 cells to IC50 for human MCF7 cells; format: ADME, cell-based; settings: GM00637 cells versus MCF7 cells, read-out: Ratio IC50
[8] = Growth inhibition of human BT549 cells incubated for 48 hrs by sulforhodamine B assay; format: functional; settings: BT-549, 48 h
[9] = Growth inhibition of human HOP92 cells incubated for 48 hrs by sulforhodamine B assay; format: functional; settings: HOP-92, 48 h
[10] = Growth inhibition of human SF539 cells incubated for 48 hrs by sulforhodamine B assay; format: functional; settings: SF-539, 48 h
[11] = Uncompetitive inhibition of rat liver thioredoxin reductase using DTNB as substrate measured for 50 mins at 5 mins intervals in presence of NADPH by Lineweaver-Burk plot analysis
MDA-MB-231 = experiment: Growth inhibition of human MDA-MB-231/ATCC cells incubated for 48 hrs by sulforhodamine B assay; format: functional; settings: MDA-MB-231, 48 h
[12] = read-out: pLC50 (the source's name) (converted)

O=c1ccc2nc(-c3ccccc3)nn(-c3ccccc3)c-2c1
Ki [1]: 3.9 µM

O=c1ccc2nc(C(F)(F)F)nn(-c3ccccc3)c-2c1
GI50 (A498): 14.1 µM | CC50 (A498; [12]): 52.5 µM | TGI (A498; read-out: pTGI (converted)): 26.9 µM | GI50 [2]: 1.58 µM | CC50 [2, 12]: 6.61 µM | TGI ([2]; read-out: pTGI (converted)): 3.24 µM | GI50 [3]: 1.45 µM | CC50 [3, 12]: 5.37 µM | TGI ([3]; read-out: pTGI (converted)): 2.82 µM | GI50 [4]: 15.5 µM | CC50 [4, 12]: 55 µM | TGI ([4]; read-out: pTGI (converted)): 28.8 µM | GI50 (NCI/ADR-RES): 53.7 µM | CC50 (NCI/ADR-RES; [12]): > 100 µM | TGI (NCI/ADR-RES; read-out: pTGI (converted)): 64.6 µM | GI50 (HT-29): 2.63 µM | CC50 (HT-29; [12]): > 100 µM | GI50 (ACHN): 1.17 µM | CC50 (ACHN; [12]): 5.13 µM | TGI (ACHN; read-out: pTGI (converted)): 2.45 µM | GI50 (SK-MEL-28): 1.7 µM | CC50 (SK-MEL-28; [12]): 6.31 µM | TGI (SK-MEL-28; read-out: pTGI (converted)): 3.24 µM | GI50 (MDA-MB-468): 1.07 µM | CC50 (MDA-MB-468; [12]): 8.32 µM | TGI (MDA-MB-468; read-out: pTGI (converted)): 2.95 µM | GI50 [5]: 5.13 µM | CC50 [5, 12]: 43.7 µM | TGI ([5]; read-out: pTGI (converted)): 17.8 µM | GI50 [6]: 1.48 µM | CC50 [6, 12]: 5.62 µM | TGI ([6]; read-out: pTGI (converted)): 2.88 µM | GI50 (EKVX): 26.9 µM | CC50 (EKVX; [12]): 53.7 µM | TGI (EKVX; read-out: pTGI (converted)): 26.9 µM | GI50 (K562): 2.09 µM | CC50 (K562; [12]): > 100 µM | GI50 (NCI-H460): 17.8 µM | CC50 (NCI-H460; [12]): 74.1 µM | TGI (NCI-H460; read-out: pTGI (converted)): 36.3 µM | GI50 (NCI-H226): 13.2 µM | CC50 (NCI-H226; [12]): 70.8 µM | TGI (NCI-H226; read-out: pTGI (converted)): 30.2 µM | GI50 (SK-MEL-5): 7.76 µM | CC50 (SK-MEL-5; [12]): 47.9 µM | TGI (SK-MEL-5; read-out: pTGI (converted)): 20.9 µM | GI50 (A549): 19.5 µM | CC50 (A549; [12]): 79.4 µM | TGI (A549; read-out: pTGI (converted)): 38.9 µM | selectivity ratio [7]: 3 | GI50 [8]: 12.3 µM | CC50 [8, 12]: 50.1 µM | TGI ([8]; read-out: pTGI (converted)): 24.5 µM | GI50 [9]: 1.38 µM | CC50 [9, 12]: 6.17 µM | TGI ([9]; read-out: pTGI (converted)): 2.95 µM | GI50 [10]: 15.8 µM | CC50 [10, 12]: 55 µM | TGI ([10]; read-out: pTGI (converted)): 29.5 µM | Ki [11]: 0.78 µM | GI50 (MDA-MB-231): 1.91 µM | CC50 (MDA-MB-231; [12]): 26.9 µM | TGI (MDA-MB-231; read-out: pTGI (converted)): 5.62 µM
